In patent publication US20040191849A1, “Method for identifying fungicides” (priority 2002, published 2004):

Key:
[1] = tested on: RPI; assay: Spectrophotometric RPI assay, increase in absorption at 290 nm (KM determination); conditions: read-out: KM value; substrate of RPI; Lineweaver-Burk plot; 400 ng of RPI; without coupled enzymes
Method: The measurement was carried out with 400 ng of RPI.
The reaction volume amounted to 700 μl.

[2] = tested on: Erysiphe graminis; assay: Induction of resistance to Erysiphe graminis in a plant; assay type: in vivo; conditions: Hordeum vulgaris; inoculated with Erysiphe graminis 4 days after treatment; 100 = maximum activity, 0 = no activity
Source text: In the case of Erysiphe graminis, the induction of resistance to this fungus, in a plant, was furthermore tested by way of example. To this end, the plant is inoculated with the pathogen 4 days after treatment of the plant with the test substance. The activity of the substance is given as efficacy in %.

[3] = tested on: ribose-phosphate isomerase; conditions: Jung et al., Arch. Biochem. Biophys. 373 (2000) 409-417; cited from earlier work

Compound `O=C[C@H](O)[C@H](O)[C@H](O)COP(=O)(O)O` [D-ribose-5-phosphate] has a Km [1] of 6.3 mM.

For `COc1ccc(S(=O)(=O)N(C)C)cc1CCC(C)NCC1CC2(CCCC2)Oc2ccccc21.O=C(O)/C=C/C(=O)O` (stereo not drawn) [Example 2], the “resistance induction (efficacy)” value [2] was 50%.

For phosphate, the “ribose-phosphate isomerase inhibitor strength” value [3] is listed as “weak”.
